The record followed here is ChEMBL document CHEMBL5696441 (Nat Chem Biol, 2011).

For experiment [1], the target named is RAC-gamma serine/threonine-protein kinase (Homo sapiens) (UniProt Q9Y243). As to the kind of experiment: Inhibition of AKT3 (unknown origin) assessed as remaining activity at 1 uM by Kinome scan method relative to control.
Experiment [2] deals with Aurora kinase B (Homo sapiens) (UniProt Q96GD4). As to the kind of experiment: Inhibition of AURKB (unknown origin) assessed as remaining activity at 1 uM by Kinome scan method relative to control.
Chain of Aurora kinase B (Homo sapiens) (Q96GD4 whole entry): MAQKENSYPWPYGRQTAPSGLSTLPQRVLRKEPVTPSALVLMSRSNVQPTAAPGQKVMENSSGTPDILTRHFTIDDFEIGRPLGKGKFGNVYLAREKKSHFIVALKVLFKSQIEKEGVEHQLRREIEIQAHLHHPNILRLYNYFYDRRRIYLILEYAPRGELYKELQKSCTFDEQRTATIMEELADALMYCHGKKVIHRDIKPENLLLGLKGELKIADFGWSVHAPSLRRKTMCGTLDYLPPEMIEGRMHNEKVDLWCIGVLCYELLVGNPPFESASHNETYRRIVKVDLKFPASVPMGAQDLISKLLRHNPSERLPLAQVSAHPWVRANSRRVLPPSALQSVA
Experiment [3] deals with Tyrosine-protein kinase Lyn (Homo sapiens) (UniProt P07948). As to the kind of experiment: Inhibition of LYN (unknown origin) assessed as remaining activity at 1 uM by Kinome scan method relative to control.
Experiment [4] has as its system Mast/stem cell growth factor receptor Kit (Homo sapiens), P10721 [D816V]. As to the kind of experiment: Inhibition of KIT D816V mutant (unknown origin) assessed as remaining activity at 1 uM by Kinome scan method relative to control.
Experiment [5] deals with cAMP-dependent protein kinase catalytic subunit beta (Homo sapiens) (UniProt P22694). The experiment in a line: Inhibition of PKAC-beta (unknown origin) assessed as remaining activity at 1 uM by Kinome scan method relative to control.
For experiment [6], the target named is Ankyrin repeat and protein kinase domain-containing protein 1 (Homo sapiens) (UniProt Q8NFD2). The experiment in a line: Inhibition of ANKK1 (unknown origin) assessed as remaining activity at 1 uM by Kinome scan method relative to control.
Chain of Ankyrin repeat and protein kinase domain-containing protein 1 (Homo sapiens) (Q8NFD2 whole entry, the tested form may be a part, canonical isoform): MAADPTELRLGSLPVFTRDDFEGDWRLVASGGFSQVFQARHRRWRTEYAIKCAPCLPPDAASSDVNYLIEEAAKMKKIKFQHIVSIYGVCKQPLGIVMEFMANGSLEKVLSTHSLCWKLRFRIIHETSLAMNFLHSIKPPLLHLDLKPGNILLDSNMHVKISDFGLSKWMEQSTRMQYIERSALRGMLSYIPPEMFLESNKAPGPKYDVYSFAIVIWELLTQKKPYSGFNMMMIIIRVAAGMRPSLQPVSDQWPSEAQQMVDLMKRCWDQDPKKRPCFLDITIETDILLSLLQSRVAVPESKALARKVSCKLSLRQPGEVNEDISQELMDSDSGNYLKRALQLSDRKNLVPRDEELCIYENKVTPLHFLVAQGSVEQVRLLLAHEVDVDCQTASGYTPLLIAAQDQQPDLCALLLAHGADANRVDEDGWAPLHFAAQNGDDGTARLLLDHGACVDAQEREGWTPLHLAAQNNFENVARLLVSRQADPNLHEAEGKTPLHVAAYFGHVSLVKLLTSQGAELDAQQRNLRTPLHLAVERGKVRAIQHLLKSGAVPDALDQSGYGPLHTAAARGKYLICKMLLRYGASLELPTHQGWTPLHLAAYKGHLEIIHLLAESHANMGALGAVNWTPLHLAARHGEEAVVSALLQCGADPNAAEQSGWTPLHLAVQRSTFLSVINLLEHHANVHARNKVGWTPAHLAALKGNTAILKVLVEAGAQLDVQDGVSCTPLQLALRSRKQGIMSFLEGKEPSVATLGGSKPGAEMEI
The target in experiment [7] is T1, Phosphorylase b kinase gamma catalytic chain, liver/testis isoform (Homo sapiens) (UniProt P15735).
T1 sequence (whole entry): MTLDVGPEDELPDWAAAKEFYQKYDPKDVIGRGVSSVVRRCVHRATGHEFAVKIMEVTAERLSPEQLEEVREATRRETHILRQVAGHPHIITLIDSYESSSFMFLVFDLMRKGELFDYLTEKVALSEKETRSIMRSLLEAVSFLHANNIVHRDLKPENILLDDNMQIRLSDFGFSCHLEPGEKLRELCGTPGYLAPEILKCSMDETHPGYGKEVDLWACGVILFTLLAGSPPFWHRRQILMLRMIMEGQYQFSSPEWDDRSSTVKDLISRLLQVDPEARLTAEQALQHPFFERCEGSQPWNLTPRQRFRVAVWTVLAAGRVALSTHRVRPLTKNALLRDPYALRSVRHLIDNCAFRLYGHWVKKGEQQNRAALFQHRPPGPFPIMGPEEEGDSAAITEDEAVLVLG
As to the kind of experiment: Inhibition of PHKG2 (unknown origin) assessed as remaining activity at 1 uM by Kinome scan method relative to control.

In experiment [8] the target is T2, Tyrosine-protein kinase TXK (Homo sapiens) (UniProt P42681).
T2 sequence (whole entry): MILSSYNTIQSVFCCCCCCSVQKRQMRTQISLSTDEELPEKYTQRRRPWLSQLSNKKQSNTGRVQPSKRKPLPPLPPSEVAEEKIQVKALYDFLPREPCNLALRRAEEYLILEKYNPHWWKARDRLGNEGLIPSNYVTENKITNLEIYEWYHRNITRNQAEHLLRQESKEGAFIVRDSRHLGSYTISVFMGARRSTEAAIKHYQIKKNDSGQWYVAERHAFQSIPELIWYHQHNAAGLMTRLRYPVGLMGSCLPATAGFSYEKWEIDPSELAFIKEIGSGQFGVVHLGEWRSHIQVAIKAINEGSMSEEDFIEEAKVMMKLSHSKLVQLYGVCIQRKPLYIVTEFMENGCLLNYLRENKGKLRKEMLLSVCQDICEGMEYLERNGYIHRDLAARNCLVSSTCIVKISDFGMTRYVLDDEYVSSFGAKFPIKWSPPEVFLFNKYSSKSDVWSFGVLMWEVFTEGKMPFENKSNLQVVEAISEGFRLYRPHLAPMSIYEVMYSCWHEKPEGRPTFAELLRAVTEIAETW
The experiment in a line: Inhibition of TXK (unknown origin) assessed as remaining activity at 1 uM by Kinome scan method relative to control.

The test system of experiment [9] is Phosphatidylinositol 4,5-bisphosphate 3-kinase catalytic subunit alpha isoform (Homo sapiens), P42336 [C420R]. The experiment in a line: Inhibition of PIK3CA C420R mutant (unknown origin) assessed as remaining activity at 1 uM by Kinome scan method relative to control.
Experiment [10] concerns the target Mitogen-activated protein kinase kinase kinase kinase 4 (Homo sapiens) (UniProt O95819). The experiment in a line: Inhibition of MAP4K4 (unknown origin) assessed as remaining activity at 1 uM by Kinome scan method relative to control.
Experiment [11] has as its target Serine/threonine-protein kinase MRCK gamma (Homo sapiens) (UniProt Q6DT37). The experiment in a line: Inhibition of DMPK2 (unknown origin) assessed as remaining activity at 1 uM by Kinome scan method relative to control.
Experiment [12] deals with Serine/threonine-protein kinase 25 (Homo sapiens) (UniProt O00506). As to the kind of experiment: Inhibition of YSK1 (unknown origin) assessed as remaining activity at 1 uM by Kinome scan method relative to control.
Experiment [13] addresses BDNF/NT-3 growth factors receptor (Homo sapiens) (UniProt Q16620). The experiment in a line: Inhibition of TRKB (unknown origin) assessed as remaining activity at 1 uM by Kinome scan method relative to control.
In experiment [14] the target is Serine/threonine-protein kinase PLK1 (Homo sapiens) (UniProt P53350). As to the kind of experiment: Inhibition of PLK1 (unknown origin) assessed as remaining activity at 1 uM by Kinome scan method relative to control.
The target of experiment [15] is T3, Aurora kinase C (Homo sapiens) (UniProt Q9UQB9).
T3 sequence (whole entry): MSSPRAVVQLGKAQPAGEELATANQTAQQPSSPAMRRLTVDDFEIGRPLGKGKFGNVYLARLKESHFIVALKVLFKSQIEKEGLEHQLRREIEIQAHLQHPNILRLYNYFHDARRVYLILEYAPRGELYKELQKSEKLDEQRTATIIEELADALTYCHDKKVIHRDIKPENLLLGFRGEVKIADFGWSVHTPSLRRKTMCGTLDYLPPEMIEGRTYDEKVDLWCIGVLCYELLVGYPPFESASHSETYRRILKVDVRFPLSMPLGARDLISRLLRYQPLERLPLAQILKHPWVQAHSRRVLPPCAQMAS
The experiment in a line: Inhibition of AURKC (unknown origin) assessed as remaining activity at 1 uM by Kinome scan method relative to control.

For experiment [16], the target named is Phosphatidylinositol 4-kinase beta (Homo sapiens) (UniProt Q9UBF8). The experiment in a line: Inhibition of PIK4CB (unknown origin) assessed as remaining activity at 1 uM by Kinome scan method relative to control.
Experiment [17] has as its target Serine/threonine-protein kinase RIO1 (Homo sapiens) (UniProt Q9BRS2). The experiment in a line: Inhibition of RIOK1 (unknown origin) assessed as remaining activity at 1 uM by Kinome scan method relative to control.

Chain of Mitogen-activated protein kinase kinase kinase kinase 4 (Homo sapiens) (O95819 2-1239 limits assumed): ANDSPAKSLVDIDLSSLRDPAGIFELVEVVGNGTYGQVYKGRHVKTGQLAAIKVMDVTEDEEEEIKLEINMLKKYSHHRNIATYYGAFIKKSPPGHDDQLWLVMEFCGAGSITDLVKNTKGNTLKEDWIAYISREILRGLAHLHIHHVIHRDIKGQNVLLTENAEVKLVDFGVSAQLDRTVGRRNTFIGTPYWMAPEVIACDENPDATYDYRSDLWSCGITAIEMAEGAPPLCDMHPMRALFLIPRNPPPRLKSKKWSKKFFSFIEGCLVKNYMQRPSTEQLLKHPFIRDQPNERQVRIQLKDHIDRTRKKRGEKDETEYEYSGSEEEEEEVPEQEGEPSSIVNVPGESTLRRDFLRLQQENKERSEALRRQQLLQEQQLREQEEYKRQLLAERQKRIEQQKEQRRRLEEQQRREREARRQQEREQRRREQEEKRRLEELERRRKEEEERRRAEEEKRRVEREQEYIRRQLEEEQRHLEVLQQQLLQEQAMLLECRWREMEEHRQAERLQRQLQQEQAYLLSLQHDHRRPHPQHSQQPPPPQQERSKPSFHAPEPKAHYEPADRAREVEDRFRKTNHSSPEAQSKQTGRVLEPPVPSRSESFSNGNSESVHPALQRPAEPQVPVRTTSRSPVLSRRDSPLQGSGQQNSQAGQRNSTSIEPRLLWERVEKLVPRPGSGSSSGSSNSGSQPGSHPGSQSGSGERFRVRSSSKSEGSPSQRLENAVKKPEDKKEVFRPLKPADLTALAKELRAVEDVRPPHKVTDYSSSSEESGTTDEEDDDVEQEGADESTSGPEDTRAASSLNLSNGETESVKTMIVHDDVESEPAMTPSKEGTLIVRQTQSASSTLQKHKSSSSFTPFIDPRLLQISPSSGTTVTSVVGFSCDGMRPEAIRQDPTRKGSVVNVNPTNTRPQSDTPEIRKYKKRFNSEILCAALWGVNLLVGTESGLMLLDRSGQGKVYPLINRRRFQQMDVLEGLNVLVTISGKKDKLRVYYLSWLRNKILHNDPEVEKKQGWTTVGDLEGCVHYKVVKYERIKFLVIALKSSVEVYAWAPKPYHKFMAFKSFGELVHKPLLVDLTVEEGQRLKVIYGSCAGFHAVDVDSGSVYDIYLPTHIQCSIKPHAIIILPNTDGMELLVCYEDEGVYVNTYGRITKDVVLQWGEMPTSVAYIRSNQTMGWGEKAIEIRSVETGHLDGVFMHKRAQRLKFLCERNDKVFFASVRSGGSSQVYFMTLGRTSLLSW
Chain of Mast/stem cell growth factor receptor Kit (Homo sapiens), P10721 [D816V] (P10721 whole entry D816V): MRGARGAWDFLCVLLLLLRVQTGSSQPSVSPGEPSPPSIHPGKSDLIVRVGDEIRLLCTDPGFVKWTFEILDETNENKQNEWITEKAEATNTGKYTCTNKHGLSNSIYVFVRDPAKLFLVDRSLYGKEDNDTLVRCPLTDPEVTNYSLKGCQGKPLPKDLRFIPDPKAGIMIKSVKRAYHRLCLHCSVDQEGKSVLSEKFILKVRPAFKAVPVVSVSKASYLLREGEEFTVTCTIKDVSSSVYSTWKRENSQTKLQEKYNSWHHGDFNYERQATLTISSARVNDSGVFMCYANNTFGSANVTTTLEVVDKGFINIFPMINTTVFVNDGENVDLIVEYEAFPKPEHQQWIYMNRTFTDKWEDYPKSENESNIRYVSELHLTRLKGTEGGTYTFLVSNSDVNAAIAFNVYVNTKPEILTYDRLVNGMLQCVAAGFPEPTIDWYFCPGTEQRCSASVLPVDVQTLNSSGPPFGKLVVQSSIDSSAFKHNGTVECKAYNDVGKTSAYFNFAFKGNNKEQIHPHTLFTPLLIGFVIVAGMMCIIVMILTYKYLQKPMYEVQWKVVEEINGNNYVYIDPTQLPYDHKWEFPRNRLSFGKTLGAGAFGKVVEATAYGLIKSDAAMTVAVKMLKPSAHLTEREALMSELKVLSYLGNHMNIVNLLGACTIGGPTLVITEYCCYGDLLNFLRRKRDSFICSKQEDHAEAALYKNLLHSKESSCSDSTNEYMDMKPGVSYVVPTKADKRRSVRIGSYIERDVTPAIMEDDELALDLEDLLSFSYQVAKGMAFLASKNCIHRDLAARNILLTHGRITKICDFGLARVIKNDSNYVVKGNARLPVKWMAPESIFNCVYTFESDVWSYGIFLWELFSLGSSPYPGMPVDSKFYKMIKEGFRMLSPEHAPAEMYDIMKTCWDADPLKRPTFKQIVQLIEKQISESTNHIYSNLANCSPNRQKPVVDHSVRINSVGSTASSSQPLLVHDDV
Chain of Serine/threonine-protein kinase MRCK gamma (Homo sapiens) (Q6DT37 whole entry): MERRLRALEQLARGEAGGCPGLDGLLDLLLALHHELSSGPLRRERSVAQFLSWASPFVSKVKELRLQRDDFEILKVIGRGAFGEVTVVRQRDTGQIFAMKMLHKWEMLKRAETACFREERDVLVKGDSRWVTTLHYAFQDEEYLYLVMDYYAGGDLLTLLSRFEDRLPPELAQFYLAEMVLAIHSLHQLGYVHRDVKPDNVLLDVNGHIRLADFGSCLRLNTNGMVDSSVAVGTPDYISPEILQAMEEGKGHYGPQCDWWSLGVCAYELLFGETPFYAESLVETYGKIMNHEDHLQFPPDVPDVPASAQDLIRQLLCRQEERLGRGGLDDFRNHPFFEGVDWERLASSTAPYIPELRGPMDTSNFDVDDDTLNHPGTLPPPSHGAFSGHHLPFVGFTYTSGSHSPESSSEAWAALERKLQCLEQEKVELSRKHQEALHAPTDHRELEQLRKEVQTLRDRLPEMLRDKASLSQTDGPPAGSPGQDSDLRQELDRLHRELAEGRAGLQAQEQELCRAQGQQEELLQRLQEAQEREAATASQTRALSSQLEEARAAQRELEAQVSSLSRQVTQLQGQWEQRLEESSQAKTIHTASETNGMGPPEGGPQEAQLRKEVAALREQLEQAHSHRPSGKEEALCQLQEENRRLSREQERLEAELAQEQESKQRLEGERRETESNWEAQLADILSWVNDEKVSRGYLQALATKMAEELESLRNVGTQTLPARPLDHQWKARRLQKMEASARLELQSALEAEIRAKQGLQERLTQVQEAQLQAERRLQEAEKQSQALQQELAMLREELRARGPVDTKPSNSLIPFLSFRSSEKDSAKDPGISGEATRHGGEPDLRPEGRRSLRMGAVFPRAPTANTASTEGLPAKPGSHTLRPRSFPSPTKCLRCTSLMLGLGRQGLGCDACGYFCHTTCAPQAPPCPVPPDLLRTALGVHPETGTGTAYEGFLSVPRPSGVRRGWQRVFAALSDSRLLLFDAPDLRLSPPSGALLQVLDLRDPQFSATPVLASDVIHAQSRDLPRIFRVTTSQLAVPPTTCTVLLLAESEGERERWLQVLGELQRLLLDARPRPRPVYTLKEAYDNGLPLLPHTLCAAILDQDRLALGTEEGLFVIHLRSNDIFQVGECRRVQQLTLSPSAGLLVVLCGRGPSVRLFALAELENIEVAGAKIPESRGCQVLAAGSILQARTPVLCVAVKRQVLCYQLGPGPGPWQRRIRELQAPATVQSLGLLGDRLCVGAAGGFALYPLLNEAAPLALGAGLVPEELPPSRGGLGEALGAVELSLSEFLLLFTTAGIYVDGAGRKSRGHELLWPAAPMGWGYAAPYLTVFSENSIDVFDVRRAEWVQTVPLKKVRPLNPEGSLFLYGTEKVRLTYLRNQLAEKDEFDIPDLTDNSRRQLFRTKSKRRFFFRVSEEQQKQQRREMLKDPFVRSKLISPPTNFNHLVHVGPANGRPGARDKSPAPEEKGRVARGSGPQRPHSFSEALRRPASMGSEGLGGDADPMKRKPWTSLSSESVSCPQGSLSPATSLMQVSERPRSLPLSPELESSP

As for `Nc1ccccc1Nc1ccc2c(c1)CCc1ccccc1C2=O`, the Activity in [1] was 88%; in experiment [2], 97%; in experiment [3] it was 99%; in [4], 85%; in [5], 88%; in [6], 96%. Moreover, the Activity in experiment [7] is 98%; in [8], 90%; in [9], 91%; in experiment [10], 94%; in experiment [11] it was 92%; in experiment [12], 92%. Besides, the Activity in experiment [13] worked out at 85%; in experiment [14], 93%; in experiment [15] it was 91%; in [16], 91%; in [17], 94%.
Consider `O=C1c2ccc(Nc3ccc(F)cc3F)cc2CCc2ccc(OC[C@H](O)CO)cc21` [Skepinone-L], for which the Activity in [1] is 90%; in experiment [2] it was 96%; in experiment [3], 93%; in experiment [4] it was 89%; in experiment [5] it was 74%; in [6], 99%. For the same compound, the Activity in experiment [7] was found to be 96%; in experiment [8], 86%; in experiment [9] it was 100%; in experiment [10] it was 100%; in experiment [11], 100%; in experiment [12], 100%. Also, the Activity in [13] was 100%; in [14] it was 88%; in experiment [15], 90%; in [16], 95%; in experiment [17] it was 95%.
